# According to patent US20060276464A1, “Diarylsulfone sulfonamides and use thereof” (Wyeth, priority 2005, published 2006):
# Read-outs that look alike come from different tables or passages of the source.
# Target: T1, SFRP-1 (Homo sapiens, UniProt Q8N474)
# T1 sequence (Q8N474 32-314): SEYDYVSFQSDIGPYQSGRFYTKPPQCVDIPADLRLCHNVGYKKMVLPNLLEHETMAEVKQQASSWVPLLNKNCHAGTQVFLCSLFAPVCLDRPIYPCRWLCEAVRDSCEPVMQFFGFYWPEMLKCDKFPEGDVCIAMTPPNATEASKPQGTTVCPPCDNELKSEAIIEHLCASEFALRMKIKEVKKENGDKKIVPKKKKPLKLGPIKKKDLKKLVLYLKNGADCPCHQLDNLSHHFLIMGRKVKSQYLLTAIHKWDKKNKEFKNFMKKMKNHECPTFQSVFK
# Test: Cell-based assay for in vitro measurement of SFRP-1/SARP2 antagonist activity (U2OS cells co-transfected with 16x TCF-tk-Luciferase reporter, Wnt and hSFRP-1);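 note: U2OS cells co-transfected with a TCF-tk luciferase reporter, a Wnt vector, hSFRP-1 or empty vector and CMV-βgal, luciferase luminescence read in cell lysates alongside βgal activity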
# [1] = U2OS, read-out: Fold Induction with SFRP-1, Conc 15 μM, with SFRP-1, fold induction over SFRP-1 control, single dose
# [2] = U2OS, read-out: Fold Induction without SFRP-1, Conc 15 μM, without SFRP-1, single dose
# [3] = U2OS, read-out: Fold Induction with SFRP-1, Conc 30 μM, with SFRP-1, fold induction over SFRP-1 control, single dose
# [4] = U2OS, read-out: Fold Induction without SFRP-1, Conc 30 μM, without SFRP-1, single dose
# [5] = U2OS, read-out: Fold Induction with SFRP-1, Conc 15 μM, single dose, luciferase reporter, fold induction over SFRP-1 control, cells with SFRP-1
# [6] = U2OS, read-out: Fold Induction without SFRP-1, Conc 15 μM, single dose, luciferase reporter, cells without SFRP-1 (specificity control)
SMILES,fold induction at 15 µM [1],fold induction at 15 µM [2],further results
"O=C1CCCN1CCCNS(=O)(=O)c1cccc(S(=O)(=O)c2ccccc2)c1 [Example 192, N-[3-(2-oxopyrrolidin-1-yl)propyl]-3-(phenylsulfonyl)benzenesulfonamide]",–,–,fold induction at 30 µM [3]: 1.1; fold induction at 30 µM [4]: 1.1
"COCCNS(=O)(=O)c1cc(S(=O)(=O)c2ccccc2)ccc1C [Example 217, N-(2-methoxyethyl)-2-methyl-5-(phenylsulfonyl)benzenesulfonamide]",2.5,1,–
"CCc1ccc(S(=O)(=O)c2ccccc2)cc1S(=O)(=O)NCCC(=O)OC [Example 222, methyl N-{[2-ethyl-5-(phenylsulfonyl)phenyl]sulfonyl}-beta-alaninate]",2.4,0.9,–
"Cc1ccc(S(=O)(=O)c2ccc(F)cc2)cc1S(=O)(=O)NC1CCOCC1 [Example 308, 5-[(4-fluorophenyl)sulfonyl]-2-methyl-N-tetrahydro-2H-pyran-4-ylbenzenesulfonamide]",2.3,0.9,–
"CCCc1ccc(S(=O)(=O)c2ccc(F)cc2)cc1S(N)(=O)=O [Example 566, 5-[(4-Fluorophenyl)sulfonyl]-2-propylbenzenesulfonamide]",–,–,fold induction at 15 µM [5]: 1.5; fold induction at 15 µM [6]: 1.3
"COc1ccccc1CCNS(=O)(=O)c1cc(S(=O)(=O)c2ccc(F)cc2)ccc1C [Example 4, 5-[(4-fluorophenyl)sulfonyl]-N-[2-(2-methoxyphenyl)ethyl]-2-methylbenzenesulfonamide]",–,–,fold induction at 30 µM [3]: 0.1; fold induction at 30 µM [4]: 0.1
"CCOc1ccc(CCNS(=O)(=O)c2cc(S(=O)(=O)c3ccccc3)ccc2OC)cc1OC [Example 158, N-[2-(4-ethoxy-3-methoxyphenyl)ethyl]-2-methoxy-5-(phenylsulfonyl)benzenesulfonamide]",1.4,1.1,–
"CCc1ccc(S(=O)(=O)c2ccccc2)cc1S(=O)(=O)N1CCN(CCN2CCCC2)CC1 [Example 288, 1-{[2-ethyl-5-(phenylsulfonyl)phenyl]sulfonyl}-4-(2-pyrrolidin-1-ylethyl)piperazine]",3.6,1.7,–
"Cc1ccc(S(=O)(=O)c2ccc(F)cc2)cc1S(=O)(=O)NCCc1ccccn1 [Example 162, 5-[(4-fluorophenyl)sulfonyl]-2-methyl-N-(2-pyridin-2-ylethyl)benzenesulfonamide]",2.7,0.8,"Fold Induction with SFRP-1 (Conc 15 μM, with SFRP-1, fold induction over SFRP-1 control, single dose): 2.5 fold; Fold Induction without SFRP-1 (Conc 15 μM, without SFRP-1, single dose): 1 fold"
"COc1ccc(CCNS(=O)(=O)c2cc(S(=O)(=O)c3ccccc3)ccc2OC)cc1OC [Example 153, N-[2-(3,4-dimethoxyphenyl)ethyl]-2-methoxy-5-(phenylsulfonyl)benzenesulfonamide]",1.5,1.1,–
"C[C@H](NS(=O)(=O)c1cc(S(=O)(=O)c2ccccc2)ccc1C(F)(F)F)[C@H](O)c1ccccc1 [Example 685, N-[(1S,2R)-2-hydroxy-1-methyl-2-phenylethyl]-5-(phenylsulfonyl)-2-(trifluoromethyl)benzenesulfonamide]",–,–,"fold induction at 10 µM (U2OS, read-out: Fold Induction with SFRP-1, U2OS cells, single dose 10 μM, luciferase reporter, fold induction over SFRP-1 control): 1.5"
"Cc1ccc(S(=O)(=O)c2ccc(Cl)cc2)cc1S(=O)(=O)NCCN1CCOCC1 [Example 290, 5-[(4-chlorophenyl)sulfonyl]-2-methyl-N-(2-morpholin-4-ylethyl)benzenesulfonamide]",1.9,0.8,–
"CCOc1cc(CCNS(=O)(=O)c2cc(S(=O)(=O)c3ccccc3)ccc2OC)ccc1OC [Example 157, N-[2-(3-ethoxy-4-methoxyphenyl)ethyl]-2-methoxy-5-(phenylsulfonyl)benzenesulfonamide]",1.5,1.2,–
"COC(=O)CCNS(=O)(=O)c1cc(S(=O)(=O)c2ccc(F)cc2)ccc1C [Example 160, methyl N-({5-[(4-fluorophenyl)sulfonyl]-2-methylphenyl}sulfonyl)-beta-alaninate]",2.4,0.9,–
"COc1ccc(S(=O)(=O)c2ccccc2)cc1S(=O)(=O)NCCCn1ccnc1 [Example 242, N-[3-(1H-imidazol-1-yl)propyl]-2-methoxy-5-(phenylsulfonyl)benzenesulfonamide]",2.3,1.2,–
"CCc1ccc(S(=O)(=O)c2ccccc2)cc1S(=O)(=O)N1CCN(CCN2CCOCC2)CC1 [Example 287, 4-[2-(4-{[2-ethyl-5-(phenylsulfonyl)phenyl]sulfonyl}piperazin-1-yl)ethyl]morpholine]",2.1,1.2,–
"CC(C)(C)OC(=O)N1CCC(NS(=O)(=O)c2cc(S(=O)(=O)c3ccccc3)ccc2Cl)CC1 [Example 623, tert-butyl 4-({[2-chloro-5-(phenylsulfonyl)phenyl]sulfonyl}amino)piperidine-1-carboxylate]",–,–,fold induction at 15 µM [5]: 2.2; fold induction at 15 µM [6]: 1.1
"Cc1ccc(S(=O)(=O)c2ccccc2)cc1S(=O)(=O)NCCCN1CCOCC1 [Example 206, 2-methyl-N-(3-morpholin-4-ylpropyl)-5-(phenylsulfonyl)benzenesulfonamide]",2.2,0.5,–
"CC(C)c1ccc(S(=O)(=O)c2ccc(F)cc2)cc1S(=O)(=O)NCCN1CCCCC1 [Example 527, 5-[(4-fluorophenyl)sulfonyl]-2-isopropyl-N-(2-piperidin-1-ylethyl)benzenesulfonamide]",–,–,fold induction at 15 µM [5]: 2.3; fold induction at 15 µM [6]: 1.2
"COCCNS(=O)(=O)c1cc(S(=O)(=O)c2ccc(F)cc2)ccc1C [Example 175, 5-[(4-fluorophenyl)sulfonyl]-N-(2-methoxyethyl)-2-methylbenzenesulfonamide]",2.5,0.9,–

# The next lines start with results.
fold induction at 15 µM [1],fold induction at 15 µM [2],SMILES,further results
1.6,0.9,"Cc1ccc(S(=O)(=O)c2ccc(N3CCCCC3)cc2)cc1S(=O)(=O)NCCCn1ccnc1 [Example 312, N-[3-(1H-imidazol-1-yl)propyl]-2-methyl-5-[(4-piperidin-1-ylphenyl)sulfonyl]benzenesulfonamide]",–
2.6,1.1,"O=S(=O)(NCCc1ccccn1)c1cc(S(=O)(=O)c2ccccc2)ccc1Cl [Example 337, 2-chloro-5-(phenylsulfonyl)-N-(2-pyridin-2-ylethyl)benzenesulfonamide]",–
1.5,1.2,"Cc1ccc(S(=O)(=O)c2ccccc2)cc1S(=O)(=O)NC1CCc2ccccc21 (stereo not drawn) [Example 415, N-(2,3-dihydro-1H-inden-1-yl)-2-methyl-5-(phenylsulfonyl)benzenesulfonamide]",–
2.5,1.1,"Cc1ccc(S(=O)(=O)c2ccc(-c3ccccc3)cc2)cc1S(=O)(=O)NCCc1ccccn1 [Example 433, 5-(biphenyl-4-ylsulfonyl)-2-methyl-N-(2-pyridin-2-ylethyl)benzenesulfonamide]",–
2.1,1.1,"Cc1ccc(S(=O)(=O)c2ccc(C(C)(C)O)cc2)cc1S(=O)(=O)NCCc1ccccn1 [Example 405, 5-{[4-(1-hydroxy-1-methylethyl)phenyl]sulfonyl}-2-methyl-N-(2-pyridin-2-ylethyl)benzenesulfonamide]",–
